In the supplement of paper PMC11451515:

Test system: NOMO1
Test: cell viability relative to DMSO control; higher = less cytotoxic
Details: 48 h
Procedure, shortened: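 Before seeding, each leukemia line was adapted for at least four passages in each medium. NOMO1 or SEM cells (500 cells/well) and P12-Ichikawa cells (1000 cells/well) went into 1536-well plates at 5 μl, then received library compounds in DMSO by pin dosing across 11 threefold concentrations, 47 μM to 0.79 nM. Readout was CellTiter-Glo One luminescence after 48 h at 37°C, and viability is given as a per-plate percentage of DMSO wells, with cell-free wells as background.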

[1] = HPLM + 10% dialyzed FBS, 0.000781 µM
[2] = HPLM + 10% dialyzed FBS, 0.00234 µM
[3] = HPLM + 10% dialyzed FBS, 0.00702 µM
[4] = HPLM + 10% dialyzed FBS, 0.0211 µM
[5] = HPLM + 10% dialyzed FBS, 0.0632 µM
[6] = HPLM + 10% dialyzed FBS, 0.19 µM
[7] = HPLM + 10% dialyzed FBS, 0.569 µM
[8] = HPLM + 10% dialyzed FBS, 1.71 µM
[9] = HPLM + 10% dialyzed FBS, 5.12 µM
[10] = HPLM + 10% dialyzed FBS, 15.4 µM
[11] = HPLM + 10% dialyzed FBS, 46.1 µM
[12] = RPMI 5 mM glucose + 10% FBS, 0.000781 µM
[13] = RPMI 5 mM glucose + 10% FBS, 0.00234 µM
[14] = RPMI 5 mM glucose + 10% FBS, 0.00702 µM
[15] = RPMI 5 mM glucose + 10% FBS, 0.0211 µM
[16] = RPMI 5 mM glucose + 10% FBS, 0.0632 µM
[17] = RPMI 5 mM glucose + 10% FBS, 0.19 µM
[18] = RPMI 5 mM glucose + 10% FBS, 0.569 µM
[19] = RPMI 5 mM glucose + 10% FBS, 1.71 µM
[20] = RPMI 5 mM glucose + 10% FBS, 5.12 µM
[21] = RPMI 5 mM glucose + 10% FBS, 15.4 µM
[22] = RPMI 5 mM glucose + 10% FBS, 46.1 µM
[23] = RPMI 5 mM glucose + 10% dialyzed FBS, 0.000781 µM
[24] = RPMI 5 mM glucose + 10% dialyzed FBS, 0.00234 µM
[25] = RPMI 5 mM glucose + 10% dialyzed FBS, 0.00702 µM
[26] = RPMI 5 mM glucose + 10% dialyzed FBS, 0.0211 µM
[27] = RPMI 5 mM glucose + 10% dialyzed FBS, 0.0632 µM
[28] = RPMI 5 mM glucose + 10% dialyzed FBS, 0.19 µM
[29] = RPMI 5 mM glucose + 10% dialyzed FBS, 0.569 µM
[30] = RPMI 5 mM glucose + 10% dialyzed FBS, 1.71 µM
[31] = RPMI 5 mM glucose + 10% dialyzed FBS, 5.12 µM
[32] = RPMI 5 mM glucose + 10% dialyzed FBS, 15.4 µM
[33] = RPMI 5 mM glucose + 10% dialyzed FBS, 46.1 µM

| Structure (SMILES) | cell viability [1] | cell viability [2] | cell viability [3] | cell viability [4] | cell viability [5] | cell viability [6] | cell viability [7] | cell viability [8] | cell viability [9] | cell viability [10] | cell viability [11] | cell viability [12] | cell viability [13] | cell viability [14] | cell viability [15] | cell viability [16] | cell viability [17] | cell viability [18] | cell viability [19] | cell viability [20] | cell viability [21] | cell viability [22] | cell viability [23] | cell viability [24] | cell viability [25] | cell viability [26] | cell viability [27] | cell viability [28] | cell viability [29] | cell viability [30] | cell viability [31] | cell viability [32] | cell viability [33] |
| --- | --- | --- | --- | --- | --- | --- | --- | --- | --- | --- | --- | --- | --- | --- | --- | --- | --- | --- | --- | --- | --- | --- | --- | --- | --- | --- | --- | --- | --- | --- | --- | --- | --- |
| CC(C)C1=C(O)C=C(O)C(=C1)C/2=N/NC(=O)N2C3=CC4=C(C=C3)[N](C)C=C4 | 134% | 116% | 123% | 130% | 118% | 29.5% | 23.4% | 23.2% | 20.7% | 21% | 15.8% | 106% | 101% | 107% | 112% | 105% | 19.6% | 16.3% | 15.3% | 16.8% | 16.3% | 13.3% | 120% | 117% | 130% | 118% | 95.9% | 32.6% | 22.3% | 19.6% | 20% | 16.9% | 17.6% |
| C[C@]12CC[C@@H]3c4ccc(O)cc4C[C@@H](CCCCCCCCC[S+]([O-])CCCC(F)(F)C(F)(F)F)[C@H]3[C@@H]1CC[C@@H]2O (some centres not stated) | – | – | – | – | – | – | – | – | – | – | – | 103% | 118% | 104% | 131% | 121% | 113% | 107% | 104% | 115% | 118% | 104% | – | – | – | – | – | – | – | – | – | – | – |
| Cc1cnc(-c2cc(N3CCN(C(=O)CC[S+](C)(=O)[O-])CC3)ncc2Cl)c(C)c1 | 96.3% | 125% | 132% | 126% | 132% | 134% | 127% | 129% | 137% | 134% | 191% | – | – | – | – | – | – | – | – | – | – | – | – | – | – | – | – | – | – | – | – | – | – |
| CC(C)CC(=O)N[C@H](C(=O)N[C@H](C(=O)N[C@@H](CC(C)C)[C@@H](O)CC(=O)N[C@@H](C)C(=O)N[C@@H](CC(C)C)[C@@H](O)CC(=O)O)C(C)C)C(C)C | 107% | 96.3% | 120% | 106% | 112% | 117% | 118% | 108% | 119% | 124% | 119% | 105% | 119% | 94.4% | 107% | 102% | 114% | 99.8% | 108% | 93.1% | 97.8% | 90.3% | 91.6% | 98.4% | 111% | 115% | 104% | 110% | 112% | 113% | 116% | 107% | 105% |
| O=C(Nc1c(Cl)cncc1Cl)c1ccc(OC(F)F)c(OCC2CC2)c1 | 108% | 126% | 111% | 97.5% | 123% | 105% | 130% | 124% | 109% | 98.5% | 100% | 94.4% | 102% | 101% | 99.1% | 108% | 106% | 120% | 107% | 102% | 103% | 99.7% | 94.5% | 106% | 112% | 101% | 107% | 112% | 106% | 114% | 97.8% | 99.6% | 102% |
| O=C(NC[C@H](O)CO)c1ccncc1Nc1ccc(I)cc1F | 94.7% | 98.5% | 90% | 93% | 82.2% | 60.9% | 53.2% | 56% | 49.2% | 38.6% | 40.4% | 103% | 101% | 111% | 90.8% | 65.2% | 61.7% | 52.6% | 51.6% | 47.6% | 37.9% | 6.49% | 88.3% | 96.1% | 93.6% | 81.1% | 72.2% | 61.9% | 52% | 49.1% | 41.6% | 38.9% | 39.3% |
| COc1ccc(C2CNC(=O)C2)cc1OC1CCCC1 (configuration not stated) | 78.4% | 105% | 91.4% | 97.7% | 122% | 105% | 105% | 112% | 101% | 99.6% | 106% | 85.8% | 92.4% | 92% | 103% | 109% | 95.1% | 92.5% | 100% | 92.4% | 91.8% | 107% | 92.1% | 94.5% | 93.8% | 95.2% | 102% | 96.7% | 104% | 94.7% | 104% | 98.7% | 94.9% |
